From patent publication US20050070006A1 (priority 2001, published 2005)
Converted amounts (≈) assume the structure as drawn. Read-outs that look alike come from different tables or passages of the source.

Tests used:
[1] = system: strain 4S (frameshift mutation); experiment: Long-term mutation test (selection phase 16 hours), luminometric β-galactosidase reporter; conditions: selection 16 hours
[2] = system: strain 4S (frameshift mutation); conditions: Bromocresol Red colour change
[3] = system: strain 6S (frameshift mutation); experiment: Long-term mutation test (selection phase 16 hours), luminometric β-galactosidase reporter; conditions: selection 16 hours
[4] = antibiotic activity; Olivia et al. 1992; cited from earlier work

Compound: Nitropyrene
- Mutation induction (factor) ([1]; 0.031 μg/ml): 0.8 factor
- Relative luminescence units (rlu) ([1]; 0.031 μg/ml): 4125 rlu
- Mutation induction (factor) ([1]; 0.0625 μg/ml): 19.8 factor
- Relative luminescence units (rlu) ([1]; 0.0625 μg/ml): 105949 rlu
- Mutation induction (factor) ([1]; 0.125 μg/ml): 41 factor
- Relative luminescence units (rlu) ([1]; 0.125 μg/ml): 219636 rlu
- Mutation induction (factor) ([1]; 0.25 μg/ml): 65 factor
- Relative luminescence units (rlu) ([1]; 0.25 μg/ml): 348410 rlu
- Mutation induction (factor) ([1]; 0.5 μg/ml): 177 factor
- Relative luminescence units (rlu) ([1]; 0.5 μg/ml): 950853 rlu
- Mutation induction (factor) ([1]; 1 μg/ml): 103 factor
- Relative luminescence units (rlu) ([1]; 1 μg/ml): 552390 rlu

Compound: Nitrofluorene
- Mutation induction (factor) ([1]; 0.031 μg/ml): 39 factor
- Relative luminescence units (rlu) ([1]; 0.031 μg/ml): 210703 rlu
- Mutation induction (factor) ([1]; 0.0625 μg/ml): 90 factor
- Relative luminescence units (rlu) ([1]; 0.0625 μg/ml): 480532 rlu
- Mutation induction (factor) ([1]; 0.125 μg/ml): 169 factor
- Relative luminescence units (rlu) ([1]; 0.125 μg/ml): 900022 rlu
- Mutation induction (factor) ([1]; 0.25 μg/ml): 321 factor
- Relative luminescence units (rlu) ([1]; 0.25 μg/ml): 1713083 rlu
- Mutation induction (factor) ([1]; 0.5 μg/ml): 682 factor
- Relative luminescence units (rlu) ([1]; 0.5 μg/ml): 3643737 rlu
- Mutation induction (factor) ([1]; 1 μg/ml): 630 factor
- Relative luminescence units (rlu) ([1]; 1 μg/ml): 3360982 rlu

Compound: COc1ccc2nc3cc(Cl)ccc3c(NCCCNCCCl)c2c1.Cl.Cl [ICR-191, 2-Methoxy-6-chloro-9-(3-(2-chloro-ethyl)aminopropylamino)acridine, dihydrochloride]
- % of positive wells ([2]; 0.03 μg/ml): 0%
- Mutation induction (factor) ([2]; 0.03 μg/ml): 0 factor
- % of positive wells ([2]; 0.06 μg/ml): 6.3%
- Mutation induction (factor) ([2]; 0.06 μg/ml): 2 factor
- % of positive wells ([2]; 0.12 μg/ml): 12.5%
- Mutation induction (factor) ([2]; 0.12 μg/ml): 4 factor
- % of positive wells ([2]; 0.25 μg/ml): 25%
- Mutation induction (factor) ([2]; 0.25 μg/ml): 8.1 factor
- % of positive wells ([2]; 0.5 μg/ml): 37.5%
- Mutation induction (factor) ([2]; 0.5 μg/ml): 12.1 factor
- % of positive wells ([2]; 1 μg/ml): 75%
- Mutation induction (factor) ([2]; 1 μg/ml): 24.2 factor
- Mutation induction (factor) ([3]; 0.016 μg/ml): 28 factor
- Relative luminescence units (rlu) ([3]; 0.016 μg/ml): 151340 rlu
- Mutation induction (factor) ([3]; 0.031 μg/ml): 57 factor
- Relative luminescence units (rlu) ([3]; 0.031 μg/ml): 307828 rlu
- Mutation induction (factor) ([3]; 0.0625 μg/ml): 86 factor
- Relative luminescence units (rlu) ([3]; 0.0625 μg/ml): 466003 rlu
- Mutation induction (factor) ([3]; 0.125 μg/ml): 127 factor
- Relative luminescence units (rlu) ([3]; 0.125 μg/ml): 685471 rlu
- Mutation induction (factor) ([3]; 0.25 μg/ml): 162 factor
- Relative luminescence units (rlu) ([3]; 0.25 μg/ml): 880208 rlu
- Mutation induction (factor) ([3]; 0.5 μg/ml): 235 factor
- Relative luminescence units (rlu) ([3]; 0.5 μg/ml): 1274327 rlu
- Mutation induction (factor) ([3]; 1 μg/ml): 264 factor
- Relative luminescence units (rlu) ([3]; 1 μg/ml): 1432620 rlu

Compound: CN(C)[C@@H]1C(=O)C(C(N)=O)=C(O)[C@@]2(O)C(=O)C3=C(O)c4c(O)cccc4[C@@](C)(O)[C@H]3C[C@@H]12 [tetracyclin]
- MIC (minimum inhibition concentration) value [4]: 0.5 µg/mL (≈ 1.13 µM)
